Data taken from patent US8945627B2, “Micelles for the solubilization of gossypol” (priority 2011, dated 2015).
Several values for one entry are separate records, joined by “and”; a condition that tells them apart may be missing. Equal values may be shown once. Read-outs that look alike come from different tables or passages of the source.

Key:
[1] = singly-loaded poloxamer 188 micelles
Protocol: The filtered solution was analyzed by reverse-phase (RP) HPLC and Dynamic Light Scattering (DLS) for drug quantification and particle size determination, respectively (see Table 1).
Drug concentration in the drug-loaded micelles was determined by RP-HPLC equipped with Shimadzu LC-20AT (HPLC pump), SIL-20AC (auto-sampler), CTO-20AC (column oven), and SPD-M20A (Photodiode array detector). A Zorbax RX-C8 column (4.6×250 mm, particle size 5 μm, Agilent) was used for the HPLC Analysis. The mobile phase was 25:75 mixture of deionized water (1% phosphoric acid) and acetonitrile by volume. The flow rate was 1.0 mL/min. Stop time for the analysis was set at 12.0 min.
For the quantification of drugs in the formulation, 10 μL of micelle solution was diluted with 990 μL of mobile phase and 10 μL of sample solution was injected into a RP-HPLC. The % drug loading, a measure of encapsulation efficiency, was calculated by following equation:

[2] = neutral pH; cited from earlier work
[3] = type: physicochemical
Protocol: Acetone was evaporated from the aqueous micelle solution under reduced pressure using a rotatory evaporator at 60° C.
(§1) Samples for RP-HPLC were prepared by adding acetonitrile (ACN) into each micelle to break it apart and quantify drugs dissolved in ACN.

[4] = type: physicochemical; remark: listed apart in the source
Protocol: Acetone was evaporated from the aqueous micelle solution under reduced pressure using a rotatory evaporator at 60° C. The thin film of “polymer plus drug mixture” was reconstituted with 1 mL of 0.9% saline at 60° C.
as §1

[5] = tested on: ES-2 ovarian monolayer cells; assay: cells; type: cell-based
[6] = tested on: ES-2 ovarian multicellular spheroids; assay: cells; type: cell-based; conditions: read-out: IC50 values (nM), Spheroids (BLI)
Protocol: Surviving cells after treatment were quantified by scanning bioluminescence of luc-ES-2 cells (IVIS optical imaging system).
The images of FIG. 7 were collected using an inverted light microscope on spheroids treated with PEG5k-b-PCL10k micelles representing 1000 nM of total drug concentration. In advance, to obtain luciferase-expressing ES-2 cells, ES-2 cells were transfected with pGL4 with neomycin resistance using Lipofectamine 2,000.
Bioluminescence of surviving cells was quantified and IC50 value was calculated by using Compusyn.

[7] = 200 mg polymer
Protocol: (§2) Supernatant was collected and drug contents were analyzed by RP-HPLC analysis.

[8] = PEG-b-PCL micelle stability tests (drug quantification)
Protocol: as §2

[9] = polymer 10 mg/ml, CYP + GSP micelles
[10] = polymer 10 mg/ml, PTX + CYP + GSP micelles
[11] = polymer 10 mg/ml, PTX + CYP micelles
[12] = polymer 10 mg/ml, single drug micelles
[13] = polymer 20 mg/ml, PTX + CYP + GSP micelles
[14] = polymer 100 mg/ml, PTX + CYP + GSP micelles
[15] = polymer 200 mg/ml, CYP + GSP micelles
[16] = polymer 200 mg/ml, PTX + CYP + GSP micelles
[17] = polymer 200 mg/ml, PTX + CYP micelles
[18] = PTX/CYP/GSP poloxamer 188 micelles
[19] = 1-in-1 PEG5k-b-PCL10k micelles, 200 mg polymer
[20] = 1-in-1 micelles, 10× decreased drug loading
[21] = 2-in-1 CYP + GSP micelles, 200 mg polymer
[22] = 2-in-1 CYP + GSP micelles, 10× decreased drug loading
[23] = 2-in-1 PTX + CYP micelles, 200 mg polymer
[24] = 2-in-1 PTX + CYP micelles, 10× decreased drug loading
[25] = 3-in-1 PTX + CYP + GSP micelles, 200 mg polymer
[26] = 3-in-1 PTX + CYP + GSP micelles, 10× decreased drug loading

Question: Which results are given for `C=CCNC1=C2C[C@@H](C)C[C@H](OC)[C@H](O)[C@@H](C)/C=C(\C)[C@H](OC(N)=O)[C@@H](OC)/C=C\C=C(/C)C(=O)NC(=CC1=O)C2=O` [17-AAG, 17-allylamino-17-demethoxygeldanamycin]?
Answer: drug level in water [1]: 210 µg/mL; water solubility [2]: about 0.1 mg/mL

Question: With `CC1=C2C[C@H]3[C@@H](CC=C4C[C@@H](O)CC[C@@]43C)[C@@H]2CC[C@]12O[C@@H]1C[C@H](C)CN[C@H]1[C@H]2C` [CYP, 11-deoxojervine] as the molecule, how does the “drug loaded” value [3, 9] read?
Answer: Its value is 1.50 ± 0.50 mg/mL.

Question: What about the “drug loaded” value [3, 10] of the same molecule?
Answer: Its value is 1.03 ± 0.02 mg/mL.

Question: And the “drug loaded” value [3, 11]?
Answer: The value was 0.14 ± 0.06 mg/mL.

Question: And the “drug loaded” value [3, 12]?
Answer: Its value is 0.05 ± 0.03 mg/mL.

Question: What about the “drug loaded” value [3, 13] of the same molecule?
Answer: The value was 1.25 ± 0.11 mg/mL.

Question: And the “drug loaded” value [3, 14]?
Answer: Its value is 4.47 ± 0.38 mg/mL.

Question: And the “drug loaded” value [3, 15]?
Answer: The value was 3.23 ± 0.99 mg/mL.

Question: What about the “drug loaded” value [3, 16] of the same molecule?
Answer: The value was 6.2 mg/mL and 6.20 ± 0.49 mg/mL.

Question: What about the “drug loaded” value [3, 17] of the same molecule?
Answer: The value was 0.89 ± 0.03 mg/mL.

Question: And the “drug loaded” value [4, 9]?
Answer: Its value is 0.16 ± 0.04 mg/mL.

Question: What about the “drug loaded” value [4, 10] of the same molecule?
Answer: The value was 0.21 ± 0.07 mg/mL.

Question: What about the “drug loaded” value [4, 11] of the same molecule?
Answer: Its value is 0.03 ± 0.001 mg/mL.

Question: And the “drug loaded” value [4, 12]?
Answer: The value was 0.012 ± 0.002 mg/mL.

Question: What about the “drug loaded” value [4, 13] of the same molecule?
Answer: Its value is 0.27 ± 0.07 mg/mL.

Question: And the “drug loaded” value [4, 14]?
Answer: The value was 3.55 ± 0.18 mg/mL.

Question: And the “drug loaded” value [4, 15]?
Answer: Its value is 3.5 ± 0.3 mg/mL.

Question: And the “drug loaded” value [4, 16]?
Answer: The value was 5.1 mg/mL and 5.09 ± 0.29 mg/mL.

Question: What about the “drug loaded” value [4, 17] of the same molecule?
Answer: The value was 0.08 ± 0.02 mg/mL.

Question: What about the IC50 ([5]; read-out: IC50 values (nM), Monolayer (BLI)) of the same molecule?
Answer: The IC50 was 240 nM.

Question: And the IC50 ([5]; read-out: IC50 values (nM), Monolayer (Celltiter Blue))?
Answer: The IC50 was 245 nM.

Question: What about the IC50 [6] of the same molecule?
Answer: The IC50 was 64.8 nM.

Question: And the “% Remaining Day 0” value ([7]; CYP/GSP poloxamer 188 micelles)?
Answer: The value was 100 ± 7.4%.

Question: What about the “% Remaining Day 1” value ([7]; CYP/GSP poloxamer 188 micelles) of the same molecule?
Answer: Its value is 106.9 ± 3.4%.

Question: What about the “% Remaining Day 0” value [7, 18] of the same molecule?
Answer: The value was 100 ± 4.9%.

Question: And the “% Remaining Day 1” value [7, 18]?
Answer: The value was 101.2 ± 2.3%.

Question: What about the “% Remaining Day 0” value [8, 19] of the same molecule?
Answer: Its value is 100 ± 10.6%.

Question: What about the “% Remaining Day 1” value [8, 19] of the same molecule?
Answer: The value was 96.3 ± 5.0%.

Question: What about the “% Remaining Day 0” value [8, 20] of the same molecule?
Answer: Its value is 100 ± 7.9%.

Question: And the “% Remaining Day 1” value [8, 20]?
Answer: The value was 96.0 ± 4.4%.

Question: What about the “% Remaining Day 0” value [8, 21] of the same molecule?
Answer: Its value is 100 ± 8.2%.

Question: What about the “% Remaining Day 1” value [8, 21] of the same molecule?
Answer: Its value is 91.0 ± 5.3%.

Question: And the “% Remaining Day 0” value [8, 22]?
Answer: The value was 100 ± 5.9%.

Question: What about the “% Remaining Day 1” value [8, 22] of the same molecule?
Answer: Its value is 96.5 ± 4.4%.

Question: And the “% Remaining Day 0” value [8, 23]?
Answer: The value was 100 ± 11.3%.

Question: And the “% Remaining Day 1” value [8, 23]?
Answer: Its value is 97.4 ± 5.7%.

Question: What about the “% Remaining Day 0” value [8, 24] of the same molecule?
Answer: The value was 100 ± 5.5%.

Question: And the “% Remaining Day 1” value [8, 24]?
Answer: The value was 94.3 ± 5.3%.

Question: What about the “% Remaining Day 0” value [8, 25] of the same molecule?
Answer: The value was 100 ± 6.1%.

Question: What about the “% Remaining Day 1” value [8, 25] of the same molecule?
Answer: The value was 36.8 ± 1.5%.

Question: And the “% Remaining Day 0” value [8, 26]?
Answer: The value was 100 ± 4.2%.

Question: What about the “% Remaining Day 1” value [8, 26] of the same molecule?
Answer: The value was 87.7 ± 2.6%.
